# Experiment: in vitro
# Conditions: human, hek293t cells
smiles,measurement,value
"N#CC(=Cc1ccc(OC(F)F)cc1)C(=O)N1CCCCC1 [8-J20, 3-[4-(difluoromethoxy)phenyl]-2-(piperidine-1-carbonyl)prop-2-enenitrile]","viability at 48 h, 25 µM",82.8%
"Cc1c(C#N)c(NC(=O)CCl)n(Cc2ccc(F)cc2)c1C [4-O21, 2-chloro-N-{3-cyano-1-[(4-fluorophenyl)methyl]-4,5-dimethyl-1H-pyrrol-2-yl}acetamide]","viability at 48 h, 25 µM",0.102%
"N#CC(=Cc1ccc([N+](=O)[O-])c(Cl)c1)C(=O)NCc1ccccc1 [8-D08, N-benzyl-3-(3-chloro-4-nitrophenyl)-2-cyanoprop-2-enamide]","viability at 48 h, 25 µM",1.37%
"CCCCNC(=O)C(C#N)=Cc1ccsc1 [9-B13, N-butyl-2-cyano-3-(thiophen-3-yl)prop-2-enamide]","viability at 48 h, 25 µM",102%
"Cc1cc(C(=O)C(C)Cl)c(C)n1-c1ccccc1 (stereo not drawn) [10-A06, 2-chloro-1-(2,5-dimethyl-1-phenyl-1H-pyrrol-3-yl)propan-1-one]","viability at 48 h, 25 µM",99.9%
"N#CC(=Cc1c(Cl)cccc1Cl)C(=O)Nc1nccs1 [8-P09, 2-cyano-3-(2,6-dichlorophenyl)-N-(1,3-thiazol-2-yl)prop-2-enamide]","viability at 48 h, 25 µM",109%
"O=C(c1cc(=O)[nH]c2ccc([N+](=O)[O-])cc12)N1CCSSCC1 [10-B11, 4-(1,2,5-dithiazepane-5-carbonyl)-6-nitro-1,2-dihydroquinolin-2-one]","viability at 48 h, 25 µM",111%
"C=CC(=O)N1CC[C@H](Oc2ccccc2)C1 [3-I18, 1-[(3S)-3-phenoxypyrrolidin-1-yl]prop-2-en-1-one]","viability at 48 h, 25 µM",103%
"Cc1ccc(CNC(=O)c2ccccc2NC(=O)CCl)cc1 [4-H21, 2-(2-chloroacetamido)-N-[(4-methylphenyl)methyl]benzamide]","viability at 48 h, 25 µM",105%
"CC(Cl)C(=O)N1CCCC1c1nc(N(C)C)no1 (stereo not drawn) [7-F19, 2-chloro-1-{2-[3-(dimethylamino)-1,2,4-oxadiazol-5-yl]pyrrolidin-1-yl}propan-1-one]","viability at 48 h, 25 µM",77.6%
"O=C(NCc1ccco1)C1CCCN1C(=O)CCl (stereo not drawn) [5-N05, 1-(2-chloroacetyl)-N-[(furan-2-yl)methyl]pyrrolidine-2-carboxamide]","viability at 48 h, 25 µM",1.39%
"O=C(CCl)Cc1c(F)cccc1Cl [10-D20, 1-chloro-3-(2-chloro-6-fluorophenyl)propan-2-one]","viability at 48 h, 25 µM",37%
"C=CC(=O)N(C)CC(=O)Nc1ccc(N2CCC(O)CC2)cc1 [3-P06, N-({[4-(4-hydroxypiperidin-1-yl)phenyl]carbamoyl}methyl)-N-methylprop-2-enamide]","viability at 48 h, 25 µM",65.6%
"N#CC(=Cc1cccc(Cl)c1Cl)C(N)=O [8-J21, 2-cyano-3-(2,3-dichlorophenyl)prop-2-enamide]","viability at 48 h, 25 µM",121%
"CN(C)c1ccc(C=C(C#N)C(=O)NCc2ccco2)cc1 [9-D10, 2-cyano-3-[4-(dimethylamino)phenyl]-N-[(furan-2-yl)methyl]prop-2-enamide]","viability at 48 h, 25 µM",101%
"N#CC(=Cc1ccsc1)C(=O)Nc1nccs1 [9-C17, 2-cyano-N-(1,3-thiazol-2-yl)-3-(thiophen-3-yl)prop-2-enamide]","viability at 48 h, 25 µM",121%
"O=C1C=CC(=O)N1c1ccc(SC(F)F)cc1 [10-A18, 1-{4-[(difluoromethyl)sulfanyl]phenyl}-2,5-dihydro-1H-pyrrole-2,5-dione]","viability at 48 h, 25 µM",3.22%
"N#Cc1ccc(OC2CN(C(=O)CCl)C2)cc1 [5-K07, 4-{[1-(2-chloroacetyl)azetidin-3-yl]oxy}benzonitrile]","viability at 48 h, 25 µM",0.233%
"CC(Cl)C(=O)NCCCN1CCc2ccccc2C1 (stereo not drawn) [7-M11, 2-chloro-N-[3-(1,2,3,4-tetrahydroisoquinolin-2-yl)propyl]propanamide]","viability at 48 h, 25 µM",88.4%
"COc1cc([N+](=O)[O-])ccc1NC(=O)C(C)Cl (stereo not drawn) [4-K12, 2-chloro-N-(2-methoxy-4-nitrophenyl)propanamide]","viability at 48 h, 25 µM",91.3%
"CCc1ccc(-c2nn(-c3ccccc3)cc2C=C(C#N)C(N)=O)cc1 [8-O22, 2-cyano-3-[3-(4-ethylphenyl)-1-phenyl-1H-pyrazol-4-yl]prop-2-enamide]","viability at 48 h, 25 µM",70.6%
"C=CC(=O)N1CSCC1C(=O)N1CCOCC1 (stereo not drawn) [2-N21, 1-[4-(morpholine-4-carbonyl)-1,3-thiazolidin-3-yl]prop-2-en-1-one]","viability at 48 h, 25 µM",74.9%
"CN(CC(=O)Nc1ccc(Cl)cc1)C(=O)CCl [4-D03, 2-chloro-N-{[(4-chlorophenyl)carbamoyl]methyl}-N-methylacetamide]","viability at 48 h, 25 µM",0.468%
"CC(Cl)C(=O)N1CCC(c2cc3ccccc3[nH]2)C1 (stereo not drawn) [7-O12, 2-chloro-1-[3-(1H-indol-2-yl)pyrrolidin-1-yl]propan-1-one]","viability at 48 h, 25 µM",82.5%
"Cc1cccc(N(Cc2ccccc2)C(=O)CCl)c1 [6-O07, N-benzyl-2-chloro-N-(3-methylphenyl)acetamide]","viability at 48 h, 25 µM",0.964%
"C=CC(=O)NCc1cccc(OC)n1 [1-H22, N-[(6-methoxypyridin-2-yl)methyl]prop-2-enamide]","viability at 48 h, 25 µM",79.2%
"COc1ccc(Cc2cnc(NC(=O)CCl)s2)cc1 [4-F17, 2-chloro-N-{5-[(4-methoxyphenyl)methyl]-1,3-thiazol-2-yl}acetamide]","viability at 48 h, 25 µM",-0.0636%
"COc1ccc(C=C(C#N)C(=O)Nc2cc(C)ccc2C)cc1Cl [9-B22, 3-(3-chloro-4-methoxyphenyl)-2-cyano-N-(2,5-dimethylphenyl)prop-2-enamide]","viability at 48 h, 25 µM",92.9%
"C=CC(=O)NC(C)c1ccc2c(c1)CCC2 (stereo not drawn) [3-F09, N-[1-(2,3-dihydro-1H-inden-5-yl)ethyl]prop-2-enamide]","viability at 48 h, 25 µM",72.3%
"C=CC(=O)NC1CCn2cccc2C1 (stereo not drawn) [3-N11, N-(5,6,7,8-tetrahydroindolizin-7-yl)prop-2-enamide]","viability at 48 h, 25 µM",71.4%
"O=C(CCl)Nc1nc(-c2ccccc2)cs1 [4-L04, 2-chloro-N-(4-phenyl-1,3-thiazol-2-yl)acetamide]","viability at 48 h, 25 µM",-0.0639%
"C=CC(=O)NCC(C)(C)C1(O)CCOC1 (stereo not drawn) [3-K13, N-[2-(3-hydroxyoxolan-3-yl)-2-methylpropyl]prop-2-enamide]","viability at 48 h, 25 µM",68%
"Cc1cc(C)c(NC(=O)C(C#N)=Cc2cc(F)ccc2F)c(C)c1 [8-A10, 2-cyano-3-(2,5-difluorophenyl)-N-(2,4,6-trimethylphenyl)prop-2-enamide]","viability at 48 h, 25 µM",2.85%
"C=CC(=O)NCc1nc2ccccc2n1C1CC1 [2-N03, N-[(1-cyclopropyl-1H-1,3-benzodiazol-2-yl)methyl]prop-2-enamide]","viability at 48 h, 25 µM",69.4%
"C=CC(=O)NC1CCc2nc(CC)nn2C1 (stereo not drawn) [1-G22, N-{2-ethyl-5H,6H,7H,8H-[1,2,4]triazolo[1,5-a]pyridin-6-yl}prop-2-enamide]","viability at 48 h, 25 µM",147%
"C=CC(=O)N1CC(c2ncon2)C1 [2-I03, 1-[3-(1,2,4-oxadiazol-3-yl)azetidin-1-yl]prop-2-en-1-one]","viability at 48 h, 25 µM",181%
"C=CC(=O)NCc1cn(C2CCC2)nn1 [3-D09, N-[(1-cyclobutyl-1H-1,2,3-triazol-4-yl)methyl]prop-2-enamide]","viability at 48 h, 25 µM",48.7%
"COc1ccc(-c2nn(-c3ccccc3)cc2C=C(C#N)C(N)=O)cc1 [8-L16, 2-cyano-3-[3-(4-methoxyphenyl)-1-phenyl-1H-pyrazol-4-yl]prop-2-enamide]","viability at 48 h, 25 µM",109%
"C=CC(=O)N1CCS(=O)(=O)N2CCCC12 (stereo not drawn) [3-H18, 1-(prop-2-enoyl)-hexahydro-1H-4lambda6-pyrrolo[1,2-b][1,2,4]thiadiazine-4,4-dione]","viability at 48 h, 25 µM",93.3%
"N#CC(=Cc1ccc(N2CCCC2)cc1)C(=O)N1CCC(C(N)=O)CC1 [9-K12, 1-(2-cyano-2-{[4-(pyrrolidin-1-yl)phenyl]methylidene}acetyl)piperidine-4-carboxamide]","viability at 48 h, 25 µM",108%
"C=CC(=O)Nc1cc(C(=O)CC)ccc1F [2-C22, N-(2-fluoro-5-propanoylphenyl)prop-2-enamide]","viability at 48 h, 25 µM",84.8%
"COc1ccc(-c2n[nH]cc2C=C(C#N)C(=O)Nc2ccccc2)cc1 [8-A14, 2-cyano-3-[3-(4-methoxyphenyl)-1H-pyrazol-4-yl]-N-phenylprop-2-enamide]","viability at 48 h, 25 µM",76.6%
"O=C(CCl)NCc1ccccc1Cn1cccn1 [5-P06, 2-chloro-N-({2-[(1H-pyrazol-1-yl)methyl]phenyl}methyl)acetamide]","viability at 48 h, 25 µM",94%
"C=CC(=O)NCCC(=O)NC1CCSc2ccc(F)cc21 (stereo not drawn) [3-D08, N-{2-[(6-fluoro-3,4-dihydro-2H-1-benzothiopyran-4-yl)carbamoyl]ethyl}prop-2-enamide]","viability at 48 h, 25 µM",70.7%
"COc1ccc(S(=O)(=O)N(C)C)cc1NC(=O)CCl [4-E05, 2-chloro-N-[5-(dimethylsulfamoyl)-2-methoxyphenyl]acetamide]","viability at 48 h, 25 µM",0.891%
"CC(NC(=O)CCl)c1ccc2c(c1)CCCC2 (stereo not drawn) [4-B03, 2-chloro-N-[1-(5,6,7,8-tetrahydronaphthalen-2-yl)ethyl]acetamide]","viability at 48 h, 25 µM",1.06%
"NC(=O)CSc1ccccc1NC(=O)CCl [4-A15, 2-{[2-(2-chloroacetamido)phenyl]sulfanyl}acetamide]","viability at 48 h, 25 µM",1.71%
"C=CC(=O)Nc1cc(NC(=O)c2cnn(-c3ccccc3)c2)ccc1F [2-G11, N-[4-fluoro-3-(prop-2-enamido)phenyl]-1-phenyl-1H-pyrazole-4-carboxamide]","viability at 48 h, 25 µM",0.749%
"O=C(CCl)c1ccc(O)cc1O [10-C14, 2-chloro-1-(2,4-dihydroxyphenyl)ethan-1-one]","viability at 48 h, 25 µM",97.4%
"C=CC(=O)NC1(c2nccc(C(F)(F)F)n2)CC1 [2-D07, N-{1-[4-(trifluoromethyl)pyrimidin-2-yl]cyclopropyl}prop-2-enamide]","viability at 48 h, 25 µM",74.9%
"C=CC(=O)N1CCC(C(=O)N(C)Cc2cc(C(C)(C)C)[nH]n2)CC1 [2-F10, N-[(5-tert-butyl-1H-pyrazol-3-yl)methyl]-N-methyl-1-(prop-2-enoyl)piperidine-4-carboxamide]","viability at 48 h, 25 µM",45.6%
"C=CC(=O)Nc1ccc2c(c1)S(=O)(=O)CC2 [3-O15, N-(1,1-dioxo-2,3-dihydro-1lambda6-benzothiophen-6-yl)prop-2-enamide]","viability at 48 h, 25 µM",63.9%
"CC(Cl)C(=O)NCc1cc(-c2ccccc2)on1 (stereo not drawn) [7-A13, 2-chloro-N-[(5-phenyl-1,2-oxazol-3-yl)methyl]propanamide]","viability at 48 h, 25 µM",74.7%
"CC(Cl)C(=O)Nc1ccccc1C(N)=O (stereo not drawn) [5-G05, 2-(2-chloropropanamido)benzamide]","viability at 48 h, 25 µM",101%
